Assay results from PubChem BioAssay (NCI).
“And” between values parts separate entries of the source, which are not always exact repeats. Equal values may be shown once.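 1) Cells in 96-well plates. 2) Compound, 48 h, 5 concentrations. 3) Linear interpolation between surrounding doses. 4) Unreached endpoint = highest concentration. GI50 marks 50% less growth. TGI: total growth inhibition.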

Assays:
Test in all cases: NCI anticancer screen, dose series, 48 h
[1] = test system: 786-0 renal
[2] = test system: A498 renal
[3] = test system: A549 NSCLC
[4] = test system: ACHN renal
[5] = test system: BT-549 breast
[6] = test system: CAKI-1 renal
[7] = test system: CCRF-CEM leukemia
[8] = test system: COLO 205 colon
[9] = test system: DU-145 prostate
[10] = test system: EKVX NSCLC
[11] = test system: HCC-2998 colon
[12] = test system: HCT-116 colon
[13] = test system: HCT-15 colon
[14] = test system: HOP-62 NSCLC
[15] = test system: HOP-92 NSCLC
[16] = test system: K-562 leukemia
[17] = test system: KM12 colon
[18] = test system: LOX IMVI melanoma
[19] = test system: M14 melanoma
[20] = test system: MALME-3M melanoma
[21] = test system: MCF7 breast
[22] = test system: MDA-MB-231 breast
[23] = test system: MDA-MB-435
[24] = test system: NCI-H226 lung
[25] = test system: NCI-H23 lung
[26] = test system: NCI-H460 lung
[27] = test system: NCI/ADR-RES ovarian
[28] = test system: OVCAR-3 ovarian
[29] = test system: OVCAR-4 ovarian
[30] = test system: OVCAR-5 ovarian
[31] = test system: OVCAR-8 ovarian
[32] = test system: PC-3 prostate
[33] = test system: RPMI-8226 leukemia
[34] = test system: RXF 393 renal
[35] = test system: SF-268 CNS
[36] = test system: SF-295 CNS
[37] = test system: SK-MEL-2 melanoma
[38] = test system: SK-MEL-28 melanoma
[39] = test system: SK-MEL-5 melanoma
[40] = test system: SK-OV-3 ovarian
[41] = test system: SNB-19 CNS
[42] = test system: SNB-75 CNS
[43] = test system: SW-620 colon
[44] = test system: T-47D breast
[45] = test system: TK-10 renal
[46] = test system: U251 CNS
[47] = test system: UACC-257 melanoma
[48] = test system: UACC-62 melanoma
[49] = test system: UO-31 renal
[50] = test system: HL-60(TB) leukemia
[51] = test system: HS 578T breast
[52] = test system: HT29 colon
[53] = test system: IGROV1 ovarian
[54] = test system: MOLT-4 leukemia
[55] = test system: NCI-H522 lung
[56] = test system: SF-539 CNS
[57] = test system: SN12C renal
[58] = test system: SR leukemia

Compound: CN(C)C(=O)C(F)(F)C(c1ccccc1Br)C1C(=O)N(C)C(=O)N(C)C1=O (stereo not drawn)
- TGI [1]: > 100 µM
- TGI [2]: > 100 µM
- TGI [3]: > 100 µM
- TGI [4]: > 100 µM
- TGI [5]: > 100 µM
- TGI [6]: > 100 µM
- TGI [7]: > 100 µM
- TGI [8]: > 100 µM
- TGI [9]: > 100 µM
- TGI [10]: > 100 µM
- TGI [11]: > 100 µM
- TGI [12]: > 100 µM
- TGI [13]: > 100 µM
- TGI [14]: > 100 µM
- TGI [15]: > 100 µM
- TGI [16]: > 100 µM
- TGI [17]: > 100 µM
- TGI [18]: > 100 µM
- TGI [19]: > 100 µM
- TGI [20]: > 100 µM
- TGI [21]: > 100 µM
- TGI [22]: > 100 µM
- TGI [23]: > 100 µM
- TGI [24]: > 100 µM
- TGI [25]: > 100 µM
- TGI [26]: > 100 µM
- TGI [27]: > 100 µM
- TGI [28]: > 100 µM
- TGI [29]: > 100 µM
- TGI [30]: > 100 µM
- TGI [31]: > 100 µM
- TGI [32]: > 100 µM
- TGI [33]: > 100 µM
- TGI [34]: > 100 µM
- TGI [35]: > 100 µM
- TGI [36]: > 100 µM
- TGI [37]: > 100 µM
- TGI [38]: > 100 µM
- TGI [39]: > 100 µM
- TGI [40]: > 100 µM
- TGI [41]: > 100 µM
- TGI [42]: > 100 µM
- TGI [43]: > 100 µM
- TGI [44]: > 100 µM
- TGI [45]: > 100 µM
- TGI [46]: > 100 µM
- TGI [47]: > 100 µM
- TGI [48]: > 100 µM
- TGI [49]: > 100 µM

Compound: CN1C2C=CC(=O)C1C1C(=O)N(c3ccccc3)C(=O)C12 (stereo not drawn)
- GI50 [1]: 3.57 µM
- TGI [1]: 15.4 µM
- GI50 [2]: 15.6 µM
- TGI [2]: 29.5 µM
- GI50 [3]: 11.1 µM
- TGI [3]: 29.1 µM
- GI50 [4]: 6.93 µM
- TGI [4]: 20.9 µM
- GI50 [6]: 1.66 µM
- TGI [6]: 4.27 µM
- GI50 [7]: 7.51 µM
- TGI [7]: > 100 µM
- GI50 [8]: 7.81 µM
- TGI [8]: 22 µM
- GI50 [9]: 2.34 µM
- TGI [9]: 6.69 µM
- GI50 [10]: 14.4 µM
- TGI [10]: 32.7 µM
- GI50 [11]: 13.3 µM
- TGI [11]: 29.3 µM
- GI50 [12]: 3.57 µM
- TGI [12]: 16.2 µM
- GI50 [13]: 5.52 µM
- TGI [13]: 20.3 µM
- GI50 [50]: 2.19 µM
- TGI [50]: > 100 µM
- GI50 [14]: 12.4 µM
- TGI [14]: 28.6 µM
- GI50 [15]: 0.085 µM
- TGI [15]: 0.701 µM
- GI50 [51]: 4.55 µM
- TGI [51]: 22.3 µM
- GI50 [52]: 3.92 µM
- TGI [52]: 23.4 µM
- GI50 [53]: 12.1 µM
- TGI [53]: 27.9 µM
- GI50 [16]: 10.2 µM
- TGI [16]: > 100 µM
- GI50 [17]: 5.17 µM
- TGI [17]: 18.4 µM
- GI50 [18]: 3.74 µM
- TGI [18]: 13.3 µM
- GI50 [19]: 9.8 µM
- TGI [19]: 24.6 µM
- GI50 [21]: 4.01 µM
- TGI [21]: 16.5 µM
- GI50 [22]: 15.3 µM
- TGI [22]: 37.8 µM
- GI50 [23]: 3.44 µM
- TGI [23]: 22.8 µM
- GI50 [54]: 5.99 µM
- TGI [54]: > 100 µM
- GI50 [24]: 17.6 µM
- TGI [24]: 57.3 µM
- GI50 [25]: 13.2 µM
- TGI [25]: 37.1 µM
- GI50 [26]: 12.7 µM
- TGI [26]: 28.9 µM
- GI50 [55]: 14.3 µM
- TGI [55]: 79.9 µM
- GI50 [27]: 17 µM
- TGI [27]: 95.3 µM
- GI50 [28]: 2.35 µM
- TGI [28]: 6.73 µM
- GI50 [29]: 11.7 µM
- TGI [29]: 38.7 µM
- GI50 [30]: 5.95 µM
- TGI [30]: 21.6 µM
- GI50 [31]: 4.22 µM
- TGI [31]: 20.3 µM
- GI50 [32]: 5.8 µM
- TGI [32]: 47.3 µM
- GI50 [35]: 3.99 µM
- TGI [35]: 17.3 µM
- GI50 [36]: 3.06 µM
- TGI [36]: 36.7 µM
- GI50 [56]: 4.87 µM
- TGI [56]: 17.7 µM
- GI50 [37]: 8.12 µM
- TGI [37]: 42 µM
- GI50 [38]: 3.62 µM
- TGI [38]: 16.7 µM
- GI50 [39]: 11.8 µM
- TGI [39]: 24.3 µM
- GI50 [40]: 26.7 µM
- TGI [40]: > 100 µM
- GI50 [57]: 5.09 µM
- TGI [57]: 31.9 µM
- GI50 [41]: 13.3 µM
- TGI [41]: 29.5 µM
- GI50 [42]: 13 µM
- TGI [42]: 29.2 µM
- GI50 [43]: 3.09 µM
- TGI [43]: 10.7 µM
- GI50 [44]: 5.65 µM
- TGI [44]: 22.6 µM
- GI50 [45]: 4.55 µM
- TGI [45]: 18.9 µM
- GI50 [46]: 7.16 µM
- TGI [46]: 20.8 µM
- GI50 [47]: 2.42 µM
- TGI [47]: 7.47 µM
- GI50 [48]: 11.5 µM
- TGI [48]: 24.3 µM
- GI50 [49]: 3.49 µM
- TGI [49]: 17.9 µM

Compound: O=c1cc(-c2cccc(OC(F)(F)F)c2)[nH]c2ccc(N3CCCC3)cc12
- TGI [3]: 44.5 µM
- TGI [4]: 51.3 µM
- TGI [6]: > 100 µM
- TGI [7]: > 100 µM
- TGI [8]: 0.0204 µM and 0.0319 µM
- TGI [9]: 0.177 µM
- GI50 [10]: 0.0493 µM
- TGI [10]: > 100 µM
- TGI [11]: 0.011 µM
- TGI [12]: 0.177 µM and 1.76 µM
- TGI [50]: < 0.0001 µM
- TGI [15]: > 100 µM
- TGI [51]: 86.2 µM
- TGI [52]: 0.00166 µM
- TGI [17]: 0.00249 µM
- TGI [19]: > 100 µM
- TGI [20]: > 100 µM
- GI50 [21]: 0.0385 µM
- TGI [21]: > 100 µM
- TGI [23]: < 0.0001 µM
- TGI [54]: 0.00157 µM
- TGI [24]: 0.000657 µM
- TGI [25]: 0.0502 µM
- TGI [27]: 0.000673 µM
- TGI [28]: 0.000234 µM
- TGI [30]: > 100 µM
- TGI [34]: 0.738 µM
- TGI [35]: 19.1 µM
- TGI [36]: 0.00048 µM
- TGI [56]: 0.000621 µM
- TGI [37]: 0.000848 µM
- TGI [39]: 0.0105 µM
- TGI [57]: 55.9 µM
- TGI [41]: 11.9 µM
- TGI [58]: < 0.0001 µM
- TGI [43]: > 100 µM
- TGI [44]: > 100 µM
- GI50 [45]: 0.0431 µM
- TGI [45]: 6.79 µM
- TGI [46]: 16.5 µM
- TGI [47]: > 100 µM
- TGI [48]: 96.8 µM
- TGI [49]: > 100 µM
